Measured values published in patent US20110046090A1 (BrainCells Inc., priority 2005, published 2011).
“And” between values parts separate entries of the source, which are not always exact repeats. Identical values can stand only once. “Also recorded” adds a separate entry of the source. Like-named read-outs stand apart in the source and are kept apart here.

Tests used:
[1] = tested on: human neural stem cells (hNSCs); assay: neuronal differentiation of cultured human neural stem cells (TUJ-1 staining), agents alone and in combination; details: for EC50: % of neuronal positive control, basal media subtracted; for effect on differentiation of hNSCs along a neuronal lineage, agent alone: dose-response, normalized to neuronal positive control;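 for all read-outs here: cells kept in mitogen-free test media, with growth-factor-free basal medium as the negative control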
Description: The presence of synergy was determined by use of a combination index (CI). […] The CI is a quantitative measure of the nature of drug interactions, comparing the EC50's of two compounds, when each is assayed alone, to the EC50 of each compound when assayed in combination. The combination index (CI) is equal to the following formula:
where C1 and C2 are the concentrations of a first and a second compound, respectively, resulting in 50% activity in neuronal differentiation when assayed in combination; and IC1 and IC2 are the concentrations of each compound resulting in 50% activity when assayed independently.

Male Fischer F344 rats = assay: novelty suppressed feeding antidepressant/anxiolytic assay; assay type: in vivo, rat; details: oral gavage once daily for 21 days, compounds given two hours prior to testing, 5.0 mg/kg each
Description: Male Fischer F344 rats were administered test compound(s)+vehicle or vehicle only (negative control) by oral gavage once daily for 21 days and evaluated for antidepressant/anxiolytic activity in the novelty suppressed feeding assay as follows. Twenty-four hours prior to behavioral testing, all food was removed from the home cage. At the time of testing a single pellet was placed in the center of a novel arena. Animals were placed in the corner of the arena and latency to eat the pellet was recorded. Compounds were administered two hours prior to testing. A decreased latency to eat the food pellet is indicative of both neurogenesis and antidepressant activity.

[2] = in vivo; cited from earlier work
[3] = cited from earlier work
human mGlu2 receptors = human mGlu2 receptors (Homo sapiens, UniProt Q14416); details: in vitro; e.g., below about 10 nM, or below about 5 nM; cited from earlier work
Chain of human mGlu2 receptors (Q14416 19-872): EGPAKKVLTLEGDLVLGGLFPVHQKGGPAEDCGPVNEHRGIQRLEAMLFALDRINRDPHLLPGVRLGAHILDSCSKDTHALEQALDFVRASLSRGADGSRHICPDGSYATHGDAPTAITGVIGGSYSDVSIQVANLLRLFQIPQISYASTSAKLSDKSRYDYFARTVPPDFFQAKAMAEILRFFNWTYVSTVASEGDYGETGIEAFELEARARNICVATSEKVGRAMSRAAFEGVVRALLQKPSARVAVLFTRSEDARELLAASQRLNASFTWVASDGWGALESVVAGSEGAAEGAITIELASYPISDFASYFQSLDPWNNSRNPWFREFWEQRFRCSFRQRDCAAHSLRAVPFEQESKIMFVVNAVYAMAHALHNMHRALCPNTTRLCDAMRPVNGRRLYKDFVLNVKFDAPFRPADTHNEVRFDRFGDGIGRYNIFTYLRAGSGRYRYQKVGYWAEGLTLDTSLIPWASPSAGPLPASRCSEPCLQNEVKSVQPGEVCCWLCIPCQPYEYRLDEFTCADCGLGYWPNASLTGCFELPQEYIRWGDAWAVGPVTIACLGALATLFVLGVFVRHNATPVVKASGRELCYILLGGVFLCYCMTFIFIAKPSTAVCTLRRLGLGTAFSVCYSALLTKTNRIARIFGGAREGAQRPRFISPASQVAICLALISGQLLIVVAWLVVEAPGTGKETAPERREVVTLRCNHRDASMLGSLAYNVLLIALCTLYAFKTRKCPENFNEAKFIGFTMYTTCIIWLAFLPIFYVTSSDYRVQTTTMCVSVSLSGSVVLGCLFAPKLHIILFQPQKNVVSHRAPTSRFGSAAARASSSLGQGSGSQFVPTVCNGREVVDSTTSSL

human mGlu3 receptors = human mGlu3 receptors (Homo sapiens, UniProt Q14832); details: in vitro; e.g., below about 10 nM, or below about 5 nM; cited from earlier work
Chain of human mGlu3 receptors (Q14832 23-879): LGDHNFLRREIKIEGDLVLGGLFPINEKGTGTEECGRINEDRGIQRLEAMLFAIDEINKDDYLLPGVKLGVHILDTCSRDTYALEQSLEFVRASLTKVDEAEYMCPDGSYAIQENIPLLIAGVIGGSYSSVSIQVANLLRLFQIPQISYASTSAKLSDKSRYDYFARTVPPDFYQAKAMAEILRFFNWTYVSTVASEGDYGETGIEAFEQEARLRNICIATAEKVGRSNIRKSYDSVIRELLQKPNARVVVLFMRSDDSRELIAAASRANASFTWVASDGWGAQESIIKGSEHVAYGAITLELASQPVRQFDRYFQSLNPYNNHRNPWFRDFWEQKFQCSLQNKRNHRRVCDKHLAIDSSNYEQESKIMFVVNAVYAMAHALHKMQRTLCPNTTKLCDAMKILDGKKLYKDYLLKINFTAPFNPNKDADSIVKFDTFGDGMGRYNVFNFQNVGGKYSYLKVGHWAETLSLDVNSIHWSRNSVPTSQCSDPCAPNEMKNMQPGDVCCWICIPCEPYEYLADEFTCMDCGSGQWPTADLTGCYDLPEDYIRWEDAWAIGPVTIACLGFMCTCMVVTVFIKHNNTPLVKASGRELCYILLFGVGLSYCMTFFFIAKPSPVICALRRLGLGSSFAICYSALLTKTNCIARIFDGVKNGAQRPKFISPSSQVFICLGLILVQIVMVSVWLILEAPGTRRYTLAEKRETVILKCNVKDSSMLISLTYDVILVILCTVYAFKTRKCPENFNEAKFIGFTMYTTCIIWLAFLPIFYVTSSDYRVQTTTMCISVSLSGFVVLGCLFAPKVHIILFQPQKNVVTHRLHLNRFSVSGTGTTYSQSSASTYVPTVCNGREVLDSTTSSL

[4] = tested on: human neural stem cells (hNSCs); assay: growth of individual neurospheres comprising hNSCs (proliferation); assay type: cell-based; details: 1 μM, 10 μM and 30 μM; percent increase over basal neurosphere size as a function of time
Description: Results are shown as a percent increase over the basal neurosphere size. Negative control (open circles) is basal media without compound, and positive control (open squares) is basal media with a known proliferative agent.
FIG. 7 is a time-response curve showing the effect of 1 μM (solid diamonds), 10 μM (solid squares), and 30 μM (solid circles) concentrations of baclofen on the growth of individual neurospheres comprising human neural stem cells (hNSCs) as a function of time. Results are shown as a percent increase over the basal neurosphere size. Negative control (open circle) is basal media without compound, and positive control (open square) is basal media with a known proliferative agent.

[5] = tested on: human neural stem cells (hNSCs); assay: toxicity on human neural stem cells (cell count, nuclear dye Hoechst 33342); assay type: cell-based; details: concentrations up to 100 μM; toxic doses fall below 80% of basal cell count
Description: Data is shown as a percent of the basal media cell count. Toxic doses typically fall below 80% of the basal cell count.
Experiments were carried out as described in Example 1, except that the positive control contained basal media only, and cells were stained with nuclear dye (Hoechst 33342).

[6] = tested on: human neural stem cells (hNSCs); assay: astrocyte differentiation of cultured human neural stem cells (GFAP staining); assay type: cell-based; details: dose-response, normalized to astrocyte positive control
Description: Mitogen-free test media with a positive control for neuronal differentiation, mitogen-free test media with 50 ng/ml BMP-2, 50 ng/ml LIF and 0.5% FBS served as a positive control for astrocyte differentiation, and basal media without growth factors served as a negative control.

Male Fisher F344 rats = assay: chronic dosing of rats: proliferation and differentiation of neural cells in the dentate gyrus (BrdU); assay type: in vivo, rat; details: for increase in differentiation of neural progenitor cells into mature neurons, subgranular zone of dentate gyrus: chronic treatment
Description: Male Fisher F344 rats were injected with varying doses of baclofen as a test compound with vehicle, or vehicle only (negative control), once daily for twenty eight days. Rats were injected once daily with 100 mg/kg BrdU on days 9-14 of test compound administrations. Rats were then anesthetized and killed by transcardial perfusion of 4% paraformaldehyde at day 28. Brains were rapidly removed and stored in 4% paraformaldehyde for 24 hours and then equilibrated in phosphate buffered 30% sucrose. Free floating 40 micron sections were collected on a freezing microtome and stored in cryoprotectant. Antibodies against BrdU and cell types of interest (e.g., neurons, astrocytes, oligodendrocytes, endothelial cells) were used for detection of cell differentiation.
Briefly, tissues were washed (0.01 M PBS), endogenous peroxidase blocked with 1% hydrogen peroxide, and incubated in PBS (0.01 M, pH 7.4, 10% normal goat serum, 0.5% Triton X-100) for 2 hours at room temperature. Tissues were then incubated with primary antibody at 4° C. overnight. The tissues were rinsed in PBS followed by incubation with biotinylated secondary antibody (1 hour at room temperature). Tissues were further washed with PBS and incubated in avidin-biotin complex kit solution at room temperature for 1 hour. Various fluorophores linked to streptavidin were used for visualization. Tissues were washed with PBS, briefly rinsed in dH2O, serially dehydrated and coverslipped. Cell counting and unbiased stereology was limited to the hippocampal granule cell layer proper and one 50 um border along the hilar margin that includes the neurogenic subgranular zone. The proportion of BrdU cells displaying a lineage-specific phenotype was determined by scoring the co-localization of cell phenotype markers with BrdU using confocal microscopy. Split panel and z-axis analysis were used for all counting. All counts were performed using multi-channel configuration with a 40× objective and electronic zoom of 2. When possible, 100 or more BrdU-positive cells were scored for each marker per animal. Each cell was manually examined in first full “z”-dimension and only those cells for which the nucleus is unambiguously associated with the lineage-specific marker were scored as positive.
The total number of BrdU-labeled cells per hippocampal granule cell layer and subgranule zone were determined using diaminobenzidine stained tissues. Over-estimation was corrected using the Abercrombie method for nuclei with empirically determined average diameter of 13 um within a 40 um section.

mGluR3 = mGluR3 (Homo sapiens, UniProt Q14832); details: cited from earlier work
Chain of mGluR3 (Q14832 23-879): as above

mGluR2 = mGluR2 (Homo sapiens, UniProt Q14416); details: cited from earlier work
Chain of mGluR2 (Q14416 19-872): as the sequence (Q14416 19-872) above

[7] = Homo sapiens, Neural stem cell, read-out: EC50 for neuronal differentiation, agent alone, compound run individually
[8] = read-out: EC50 for neuronal differentiation, agent alone, compound run individually

COC(=O)[C@@H]1[C@H]2C[C@H]3c4[nH]c5ccccc5c4CCN3C[C@@H]2CC[C@@H]1O [yohimbine]
EC50 [1, 7]: 1.96 µM

CC(C)c1c(C(=O)Nc2ccccc2)c(-c2ccccc2)c(-c2ccc(F)cc2)n1CC[C@@H](O)C[C@@H](O)CC(=O)O [atorvastatin]
EC50 [1, 7]: 0.003 µM

C[C@H](CS)C(=O)N1CCC[C@H]1C(=O)O [captopril]
EC50 [1, 7]: 3.8 µM

O=C1CC[C@@]2(O)[C@H]3Cc4ccc(O)c5c4[C@@]2(CCN3CC2CC2)[C@H]1O5 [naltrexone]
EC50 [1, 7]: 7.3 µM

O=C(O)[C@@H]1C[C@@H](C2CCCCC2)CN1C(=O)CP(=O)(O)CCCCc1ccccc1 [fosinoprilat]
EC50 [1, 7]: 3.3 µM

CC(C)C[C@H](CN)CC(=O)O [pregabalin, (S)-(+)-3-isobutylgaba]
EC50 [1, 8]: 0.57 µM and 3.39 µM and 4.13 µM | antidepressant and anxiolytic effects in novelty suppressed feeding (Male Fischer F344 rats): no effects

NC(=O)C[S+]([O-])C(c1ccccc1)c1ccccc1 (stereo not drawn) [modafinil]
EC50 [1, 7]: 3.44 µM

CCCCc1ncc(/C=C(\Cc2cccs2)C(=O)O)n1Cc1ccc(C(=O)O)cc1 [eprosartan]
EC50 [1, 7]: 0.03 µM

COCCCOc1cc(C[C@@H](C[C@H](N)[C@@H](O)C[C@H](C(=O)NCC(C)(C)C(N)=O)C(C)C)C(C)C)ccc1OC [aliskiren, (2S,4S,5S,7S)-5-amino-N-(2-carbamoyl-2-methyl-propyl)-4-hydroxy-7-{[4-methoxy-3-(3-methoxypropoxy)phenyl]methyl}-8-methyl-2-propan-2-yl-nonanamide]
EC50 [1, 7]: 2.79 µM | plasma half-life [2]: ≈ 24 hours | water solubility [3]: good water solubility

Clc1ccc2c(c1)N=C(N1CCNCC1)c1ccccc1N2 [N-desmethylclozapine]
EC50 [1, 8]: > 100 µM

CCC[C@H](N[C@@H](C)C(=O)N1[C@H](C(=O)O)C[C@@H]2CCCC[C@@H]21)C(=O)O [perindoprilat, Perindoprilat]
EC50 [1, 7]: 3.5 µM

N[C@@]1(C(=O)O)CO[C@H]2[C@H](C(=O)O)[C@H]21 [LY379268, (−)-2-Oxa-4-aminobicyclohexane-4,6-dicarboxylic acid]
EC50 (human mGlu2 receptors): low nanomolar range | EC50 (human mGlu3 receptors): low nanomolar range

NCC1(CC(=O)O)CCCCC1 [gabapentin, Gabapentin]
EC50 [1, 8]: 0.68 µM and 4.32 µM and 2.66 µM

CCCCc1nc(Cl)c(CO)n1Cc1ccc(-c2ccccc2-c2nn[nH]n2)cc1 [losartan]
EC50 [1, 7]: 0.31 µM

NCC(CC(=O)O)c1ccc(Cl)cc1 (stereo not drawn) [baclofen, Baclofen]
effect on neurosphere growth / cell proliferation [4]: positive effect on cell proliferation | toxicity on hNSCs (cell count as percent of basal media cell count) [5]: Neither GABA nor baclofen exhibited toxicity; also recorded: did not exhibit significant toxicity | effect on differentiation of hNSCs along an astrocyte lineage [6]: did not exhibit a significant effect on astrocyte differentiation | effect on differentiation of hNSCs along an astrocyte lineage ([6]; listed as Baclofen): no detectable effect | increase in differentiation of neural progenitor cells into mature neurons, subgranular zone of dentate gyrus (Male Fisher F344 rats; 0.75 mg/kg/day): 8% | increase in differentiation of neural progenitor cells into mature neurons, subgranular zone of dentate gyrus (Male Fisher F344 rats; 1.50 mg/kg/day): 5% | neural cell proliferation within the dentate gyrus (mean number of BrdU-positive cells) (Male Fisher F344 rats; injection once daily for twenty eight days, 0.75 and 1.50 mg/kg): dose-related increase in proliferation | neurogenic effects in vivo (Male Fisher F344 rats; once daily for twenty eight days): produces neurogenic effects with a rapid onset of action | EC50 [1, 7]: 3.84 µM | effect on differentiation of hNSCs along a neuronal lineage, agent alone [1]: significant enhancement | effect on differentiation of hNSCs along a neuronal lineage, agent alone ([1]; listed as Baclofen): promoted neuronal differentiation | EC50 [1, 8]: 3.2 µM

CCCCN(CC)c1nc(C)nc2c1c(C)c(C)n2-c1c(C)cc(C)cc1C [antalarmin]
EC50 [1, 7]: 2.33 µM

NC1(C(=O)O)CCc2cc(P(=O)(O)O)ccc21 (racemic) [APICA, (RS)-1-amino-5-phosphonoindan-1-carboxylic acid]
IC50 (mGluR3): ~30 µM | IC50 (mGluR2): ~30 µM

NCCCC(=O)O [GABA]
effect on neurosphere growth / cell proliferation [4]: positive effect on cell proliferation | toxicity on hNSCs (cell count as percent of basal media cell count) [5]: Neither GABA nor baclofen exhibited toxicity; also recorded: did not exhibit significant toxicity | effect on differentiation of hNSCs along an astrocyte lineage [6]: no detectable effect; also recorded: did not exhibit a significant effect on astrocyte differentiation | effect on differentiation of hNSCs along a neuronal lineage, agent alone [1]: promoted neuronal differentiation; also recorded: significant enhancement

NC(=O)c1ncn([C@@H]2O[C@H](CO)[C@@H](O)[C@H]2O)n1 [ribaviran, ribavirin]
EC50 [1, 7]: 6.1 µM

C[C@H](N[C@@H](CCc1ccccc1)C(=O)O)C(=O)N1Cc2ccccc2C[C@H]1C(=O)O [quinaprilat, Quinaprilat]
EC50 [1, 7]: 2.4 µM

NCCCC[C@H](N[C@@H](CCc1ccccc1)C(=O)O)C(=O)N1CCC[C@H]1C(=O)O [lisinopril]
EC50 [1, 7]: 3.8 µM

CCOc1nc2cccc(C(=O)O)c2n1Cc1ccc(-c2ccccc2-c2nnn[nH]2)cc1 [candesartan]
EC50 [1, 7]: 1.17 µM | EC50 [1, 8]: 1.33 µM | antidepressant and anxiolytic effects in novelty suppressed feeding (Male Fischer F344 rats): no effects

CCCc1nc2c(C)cc(-c3nc4ccccc4n3C)cc2n1Cc1ccc(-c2ccccc2C(=O)O)cc1 [telmisartan]
EC50 [1, 7]: 0.02 µM

CCOC(=O)[C@H](CCc1ccccc1)N[C@H]1CCc2ccccc2N(CC(=O)O)C1=O [benazepril]
EC50 [1, 7]: 5.5 µM
